PMC11544091 (Nature Communications, 2024)

Target: T1, human A3R (Homo sapiens, UniProt P0DMS8)
T1 sequence (P0DMS8 1-318): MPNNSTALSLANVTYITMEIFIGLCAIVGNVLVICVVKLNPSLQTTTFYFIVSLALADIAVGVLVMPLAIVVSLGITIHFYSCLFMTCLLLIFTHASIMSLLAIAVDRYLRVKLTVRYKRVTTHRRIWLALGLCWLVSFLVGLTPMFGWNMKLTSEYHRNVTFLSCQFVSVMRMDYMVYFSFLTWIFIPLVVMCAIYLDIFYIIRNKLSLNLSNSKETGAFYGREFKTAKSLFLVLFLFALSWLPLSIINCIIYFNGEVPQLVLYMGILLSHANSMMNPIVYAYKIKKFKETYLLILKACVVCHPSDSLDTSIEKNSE
Test: TGFα shedding assay, human A3R WT
Type: cell-based
Settings: for activation of A3R (in words): human A3R

Molecule	activation of A3R (in words)	potency towards all four adenosine receptors (in words) (A1R, A2AR, A2BR, A3R)	calculated intrinsic activity (RAi) relative to adenosine (A3R) [%]
C[C@@H](O)[C@H](NC(=O)Nc1ncnc2c1ncn2[C@@H]1O[C@H](CO)[C@@H](O)[C@H]1O)C(=O)O [t6A, N6-Threonylcarbamoyladenosine]	did not show any potency on A3R	–	–
1-methyladenosine [m^1A]	can also induce A3R activation	weak and non-selective potency	–
CC(C)=CCNc1ncnc2c1ncn2[C@@H]1O[C@H](CO)[C@@H](O)[C@H]1O [i6A, N6-Isopentenyladenosine]	selectively activates A3R	–	59
CN(C)c1ncnc2c1ncn2[C@@H]1O[C@H](CO)[C@@H](O)[C@H]1O [m6,6A, N6,N6-Dimethyladenosine]	very weak activation of A3R	–	7
